Results: patent US6291470A, “Indole derivatives process for producing the same and medicinal uses of the same” (Toray Industries, Inc., priority 1992, dated 2001)

Legend:
[1] = system: Cerebral cortex nerve cells; assay: Brain cell-protecting action, MTT method; assay type: cell-based, rat; settings: study group / control group, 570 nm, 10 μM, 3 days culture
Protocol: The brain cell-protecting action was examined by MTT [3-(4,5-dimethylthiazol-2-yl)-2,5-diphenyltetrazolium bromide] method. MTT yields a dark blue formazan compound by mitochondria in living cells. This compound was dissolved in isopropanol and absorbance at 570 nm was measured, thereby measuring the number of living cells.
Cerebral cortex nerve cells of fetal rats of 17 days old were placed in wells of a 96-well plate at a population density of 1×10^5 cells/cm^2. Then 10 μM of a test compound was added and the cells were cultured in 200 μl of mixed medium of D-MEM/F.12 (1:1) for 3 days (37° C., 5%CO2). In a control group, the medium alone was added Then […] of MTT solution in PBS (6mg/ml) was added and the mixture was allowed to react for 3 hours (37° C., 5% CO2). After removing the culture medium, 100 μl of isopropanol was added and the absorbance was measured.
The ratio of the absorbances of the study group and the control group was employed as an index of brain cell-protecting action.

brain cells = settings: Kokai No. 3-218313; cited from earlier work
δ-opioid receptor [2] = molecular target: T1, δ-opioid receptor (Mus musculus, UniProt P32300); assay: Change in δ-antagonist activity against DPDPE with time in mouse vas deferens (MVD); settings: for Ratio of IC50 Values / Kb: 173 and NTI at 20 nM, 174 and 5'-NTII at 100 nM; for Kb: read-out: Ke
T1 construct: from tissue; host or cells: vas deferens of male ddy mice
Protocol: In this experiment, ddy male mice were used. In a Magnus' tube which is filled with Krebes-Henseleit solution (NaCl […]; KCl 4.7 mM; CaCl2 2.5 mM; KH2 PO4 1.1 mM; NaHCO3 25 mM; glucose 11 mM) kept at 37° C., and into which an atmosphere consisting of 5% carbon dioxide and 95% oxygen was flown, vas deferens taken from the animals was suspended. Electric stimulation was applied through ring-shaped platinum electrodes mounted on the upper and lower portions of the tube at a frequency of 0.1 Hz and 5.0 mS duration. The contraction of the tissue was recorded on polygraph using isometric transducer.
Then 100 nM of the test compound was added. Twenty minutes later, DPDPE was begun to be added cumulatively. The ratio of IC50 values in the presence and absence of the test compound, Ke value (the molar concentration of the test compound necessary for translating the dose-effect curve to the curve of twice dose) and pA2 value were determined. The pA2 value was determined by the method of Shild et al (Shild, H. O., Br. J. Pharmac. Chamotehr., 4, 277 (1949)). That is, the logarithm of the test compound (log[test compound]) was plotted along the abscissa and the logarithm of the value obtained by subtracting 1 from the ratio of IC50 values was plotted in the presence and absence of the test compound [log(dose ratio-1)] along the ordinate. The pA2 value was determined from the value on the abscissa when the value on the ordinate of the obtained line is 0.
Using MVD, the antagonist activities of compounds 173 and 174 against DPDPE were determined. The ratio of IC50 values, Ke values and pA2 values at 15 minutes, 30 minutes and 1 hour from the addition of the test compounds were calculated. Since the concentrations of the test compounds are different, the reciprocals of Ke values were plotted in FIGS. 1 and 2.

δ-opioid receptor [3] = settings: Portoghese, J. Med. Chem. 33, 1547 (1990); cited from earlier work
δ-opioid receptor [4] = molecular target: T1, δ-opioid receptor; assay: δ-opioid antagonist activity against DPDPE in mouse vas deferens (MVD); settings: 20 min
Outline: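 Vas deferens from male ddy mice in Krebs-Henseleit at 37 °C (5% CO2/95% O2), field-stimulated at 0.1 Hz, 5.0 ms, isometric contraction recorded. IC50 dose ratio, Ke and Schild pA2 derived.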

[5] = system: delayed type hypersensitivity; assay: Mouse Delayed Type Hypersensitivity Reaction Suppression Test-2 (donor spleen cells, subcutaneous administration); assay type: in vivo; settings: C57BL/6 spleen cells; subcutaneous everyday from day of sensitization, totally 8 days; BALB/c
Source text: (§1) BALB/c mice (male, 7 weeks old) were used, and each group consisted of 4-5 mice. Spleen cells (1×10^7 ) obtained from a donor mouse (C57BL/6) was subcutaneously administered to sensitize the mice. On Day 7 from the sensitization, the spleen cells (5×10^6) of the donor were subcutaneously administered on the right hing leg and spleen cells (5×10^6) obtained from a mouse of the same line as the recipient mice were subcutaneously administered on the left footpad. Twenty four hours later, the thicknesses of the right and left footpads were measured with a dial thickness gage, and the difference in thicknesses of the right and left footpads before the induction of the reaction and 24 hours after the induction of the reaction was employed as the index of the degree of the reaction.
The test compound was dissolved in 10% DMSO-water and was subcutaneously administered everyday from the day of sensitization to the day of induction of the reaction, totally 8 days. In the control group, 10% DMSO-water alone was administered in the same manner. The volume of administration was 10 ml/kg in both study groups and in the control group. Delayed Type Hypersensitivity Reaction=(thickness of right foodpad after induction-thickness of right footpad before induction)-(thickness of […] before induction) [formula]
wherein C means delayed type hypersensitivity reaction of the group to which the test compound was administered and D means the delayed type hypersensitivity reaction of the group to which vehicle was administered.

[6] = system: delayed type hypersensitivity; assay: Mouse Delayed Type Hypersensitivity Reaction Suppression Test-3 (administration into cerebral ventricles); assay type: in vivo
Source text: as §1, with “(1×10^7)” for “(1×10^7 )”, “footpad” for “hing leg”, “strain” for “line”
The test compound was dissolved in water and 5×10^-8 mol/mouse was administered into cerebral ventricles. In the control group, water alone was administered similarly. The dose was 5 μl/mouse in both the study groups and the control group.

[7] = system: delayed type hypersensitivity; assay: Delayed type hypersensitivity suppression test using mice from which adrenal glands have been removed; assay type: in vivo, mouse; settings: subcutaneous, totally 8 days
Source text: The mechanism of immunosuppression of the compound of the present invention was examined using delayed type hypersensitivity suppression test using mice from which adrenal glands have been removed.
as §1, with “(1×10^7)” for “(1×10^7 )”, “footpad” for “hing leg”, “strain” for “line”
The adrenectomy was performed by cutting the back of each recipient mouse under anesthesia with ether before the sensitization and removing the adrenal gland. Sham operation was performed by cutting the back of each recipient mouse but not removing the adrenal gland.
The test compound was dissolved in 10% DMSO-water and was subcutaneously administered everyday from the day of sensitization to the day of induction of the reaction, totally 8 days. In the control group, 10% DMSO-water alone was administered in the same manner. The volume of administration was 10 ml/kg in both study groups and in the control groups.

contact dermatitis = assay: Mouse Contact Dermatitis Suppression Test (DNFB); assay type: in vivo; settings: into cerebral ventricle 30 minutes before induction, BALB/c
Protocol: BALB/c mice (male, 13-15 weeks old) were used, and each group consisted of 4 mice. In mixed liquid of acetone: olive oil=4:[…] (DNFB) was dissolved. On Day 0 and Day 1, 0.1% DNFB (50μ) was sensitized to the clipped skin of the abdominal wall, so as to sensitize the mouse. On day 5, 0.15% DNFB (25 μl/ear) was challenged on closal side of each ear love of each mouse, so as to induce the reaction. The compound was administered into cerebral ventricle 30 minutes before the induction.
The contact dermatitis was detected in terms of the increase in the thicknesses of the ears. The thicknesses of the ears were measured before and 24 hours after the challenge by using a dial thickness gage. One ear was taken as n=1, and the increase in the thickness of the ear was used as an index for detecting the contact dermatitis. Contact Dermatitis=(thickness of the ear after challenge)-(thickness of the ear before challenge) [formula]
wherein E means the contact dermatitis of the group to which the compound was administered, and F means the contact dermatitis of the group to which the vehicle was administered.

T1 sequence (P32300 whole entry): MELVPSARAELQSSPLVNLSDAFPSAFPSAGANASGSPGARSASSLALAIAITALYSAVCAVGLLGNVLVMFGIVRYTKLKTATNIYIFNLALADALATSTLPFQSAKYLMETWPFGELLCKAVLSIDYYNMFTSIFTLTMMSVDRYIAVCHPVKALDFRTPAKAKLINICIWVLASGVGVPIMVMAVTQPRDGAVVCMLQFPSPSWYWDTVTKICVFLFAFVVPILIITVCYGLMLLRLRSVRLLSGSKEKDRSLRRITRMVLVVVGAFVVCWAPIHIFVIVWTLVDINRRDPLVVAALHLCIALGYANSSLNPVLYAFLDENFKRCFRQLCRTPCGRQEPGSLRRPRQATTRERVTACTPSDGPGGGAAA

SMILES: Oc1ccc2c3c1O[C@H]1c4[nH]c5c(c4C[C@@]4(O)[C@@H](C2)N(CC2CC2)CC[C@]314)C[C@@]1(O)[C@H]2Cc3ccc(O)c4c3[C@@]1(CCN2CC1CC1)[C@H]5O4 [nor-BNI, reference compound]
- Ratio of Absorbances [1]: 7.60
- brain cell-protecting action (in words) (brain cells): has brain cell-protecting action

SMILES: Oc1ccc2c3c1O[C@H]1c4[nH]c5ccc(N=C=S)cc5c4C[C@@]4(O)[C@@H](C2)N(CC2CC2)CC[C@]314 [5'-NTII, reference compound]
- Ratio of IC50 Values (δ-opioid receptor [2]; 15 min): 3.28
- Kb (δ-opioid receptor [2]; 15 min): 43.9 nM
- change of antagonist activity with time (in words) (δ-opioid receptor [2]; 15 min to 1 hour): increased with time
- Ratio of IC50 Values (δ-opioid receptor [2]; 30 min): 7.47
- Kb (δ-opioid receptor [2]; 30 min): 15.5 nM
- Ratio of IC50 Values (δ-opioid receptor [2]; 60 min): 9.36
- Kb (δ-opioid receptor [2]; 60 min): 12 nM
- antagonist activity and selectivity to δ-opioid receptor (in words) (δ-opioid receptor [3]): antagonist activity and selectivity to δ-opioid receptor are low

SMILES: Oc1ccc2c3c1O[C@H]1c4[nH]c5c6c(ccc5c4C[C@@]4(O)[C@@H](C2)N(CC2CC2)CC[C@]314)CCCC6 [Compound 2, 17-cyclopropylmethyl-3,14β-dihydroxy-4,5α-epoxy-6,7-didehydromorphinano[6,7-b]cyclohexeno[g]indole]
- Ratio of IC50 Values (δ-opioid receptor [4]; DPDPE IC50 with/without 100 nM test compound): 22.1
- Kb (δ-opioid receptor [4]; against DPDPE, test compound 100 nM, read-out: Ke): 4.74 nM
- % Suppression [5]: 60%
- % Suppression ([6]; 5×10^-8 mol/mouse into cerebral ventricles, BALB/c): 83%
- suppressive effect relative to NTI (in words) ([6]; into cerebral ventricles, vs NTI): far stronger than NTI
- % Suppression ([7]; Adrenectomy): 60%
- % Suppression ([7]; Sham Operation): 60%
- suppression of contact dermatitis (contact dermatitis): 44%
